Experiments:
[1] = test system: Rattus norvegicus; assay: Ability to stimulate intestinal-calcium transport by the administration of compound in rats at a concentration of 5 pmol at 72 hr.; assay type: functional, Intestine
[2] = test system: Rattus norvegicus; assay: Ability to mobilize Bone-Calcium transport, following the administration of compound in rats at a concentration of 50 pmol at 72 hr.; assay type: functional, organism-based
[3] = test system: Rattus norvegicus; assay: Ability to mobilize Bone-Calcium transport, following the administration of compound in rats at a concentration of 5000 pmol at 47 hr.; assay type: functional, organism-based
[4] = test system: Rattus norvegicus; assay: Ability to mobilize Bone-Calcium transport, following the administration of compound in rats at a concentration of 500 pmol at 13 hr.; assay type: functional, organism-based
[5] = test system: Rattus norvegicus; assay: Ability to mobilize Bone-Calcium transport, following the administration of compound in rats at a concentration of 5000 pmol at 72 hr.; assay type: functional, organism-based
[6] = test system: Rattus norvegicus; assay: Ability to mobilize Bone-Calcium transport, following the administration of compound in rats at a concentration of 50 pmol at 13 hr.; assay type: functional, organism-based
[7] = test system: Rattus norvegicus; assay: Ability to mobilize Bone-Calcium transport, following the administration of compound in rats at a concentration of 50 pmol at 47 hr.; assay type: functional, organism-based
[8] = test system: Rattus norvegicus; assay: Ability to mobilize Bone-Calcium transport, following the administration of compound in rats at a concentration of 5000 pmol at 13 hr.; assay type: functional, organism-based
[9] = test system: Rattus norvegicus; assay: Ability to stimulate intestinal-calcium transport by the administration of compound in rats at a concentration of 5000 pmol at 47 hr.; assay type: functional, Intestine
[10] = test system: Rattus norvegicus; assay: Ability to stimulate intestinal-calcium transport by the administration of compound in rats at a concentration of 50 pmol at 72 hr.; assay type: functional, Intestine
[11] = test system: Rattus norvegicus; assay: Ability to mobilize Bone-Calcium transport, following the administration of compound in rats at a concentration of 5 pmol at 47 hr.; assay type: functional, organism-based
[12] = test system: Rattus norvegicus; assay: Ability to stimulate intestinal-calcium transport by the administration of compound in rats at a concentration of 50 pmol at 13 hr.; assay type: functional, Intestine
[13] = test system: Rattus norvegicus; assay: Ability to stimulate intestinal-calcium transport by the administration of compound in rats at a concentration of 500 pmol at 13 hr.; assay type: functional, Intestine
[14] = test system: Rattus norvegicus; assay: Ability to stimulate intestinal-calcium transport by the administration of compound in rats at a concentration of 5000 pmol at 72 hr.; assay type: functional, Intestine
[15] = test system: Rattus norvegicus; assay: Ability to stimulate intestinal-calcium transport by the administration of compound in rats at a concentration of 500 pmol at 72 hr.; assay type: functional, Intestine
[16] = test system: Rattus norvegicus; assay: Ability to stimulate intestinal-calcium transport by the administration of compound in rats at a concentration of 5 pmol at 13 hr.; assay type: functional, Intestine
[17] = test system: Rattus norvegicus; assay: Ability to mobilize Bone-Calcium transport, following the administration of compound in rats at a concentration of 5 pmol at 13 hr.; assay type: functional, organism-based
[18] = test system: Rattus norvegicus; assay: Ability to stimulate intestinal-calcium transport by the administration of compound in rats at a concentration of 50 pmol at 47 hr.; assay type: functional, Intestine
[19] = test system: Rattus norvegicus; assay: Ability to stimulate intestinal-calcium transport by the administration of compound in rats at a concentration of 5 pmol at 47 hr.; assay type: functional, Intestine
[20] = test system: Rattus norvegicus; assay: Ability to mobilize Bone-Calcium transport, following the administration of compound in rats at a concentration of 500 pmol at 69 hr.; assay type: functional, organism-based
[21] = test system: Rattus norvegicus; assay: Ability to mobilize Bone-Calcium transport, following the administration of compound in rats at a concentration of 5 pmol at 12 hr.; assay type: functional, organism-based
[22] = test system: Rattus norvegicus; assay: Ability to stimulate intestinal-calcium transport by the administration of compound in rats at a concentration of 50 pmol at 69 hr.; assay type: functional, Intestine
[23] = test system: Rattus norvegicus; assay: Ability to stimulate intestinal-calcium transport by the administration of compound in rats at a concentration of 5000 pmol at 48 hr.; assay type: functional, Intestine
[24] = test system: Rattus norvegicus; assay: Ability to mobilize Bone-Calcium transport, following the administration of compound in rats at a concentration of 5000 pmol at 48 hr.; assay type: functional, organism-based
[25] = test system: Rattus norvegicus; assay: Ability to stimulate intestinal-calcium transport by the administration of compound in rats at a concentration of 500 pmol at 48 hr.; assay type: functional, Intestine
[26] = test system: Rattus norvegicus; assay: Ability to stimulate intestinal-calcium transport by the administration of compound in rats at a concentration of 500 pmol at 12 hr.; assay type: functional, Intestine
[27] = test system: Rattus norvegicus; assay: Ability to mobilize Bone-Calcium transport, following the administration of compound in rats at a concentration of 5 pmol at 48 hr.; assay type: functional, organism-based
[28] = test system: Rattus norvegicus; assay: Ability to stimulate intestinal-calcium transport by the administration of compound in rats at a concentration of 500 pmol at 69 hr.; assay type: functional, Intestine
[29] = test system: Rattus norvegicus; assay: Ability to stimulate intestinal-calcium transport by the administration of compound in rats at a concentration of 5000 pmol at 69 hr.; assay type: functional, Intestine
[30] = test system: Rattus norvegicus; assay: Ability to mobilize Bone-Calcium transport, following the administration of compound in rats at a concentration of 50 pmol at 48 hr.; assay type: functional, organism-based
[31] = test system: Rattus norvegicus; assay: Ability to stimulate intestinal-calcium transport by the administration of compound in rats at a concentration of 5 pmol at 12 hr.; assay type: functional, Intestine
[32] = test system: Rattus norvegicus; assay: Ability to stimulate intestinal-calcium transport by the administration of compound in rats at a concentration of 50 pmol at 48 hr.; assay type: functional, Intestine
[33] = test system: Rattus norvegicus; assay: Ability to stimulate intestinal-calcium transport by the administration of compound in rats at a concentration of 5 pmol at 48 hr.; assay type: functional, Intestine
[34] = test system: Rattus norvegicus; assay: Ability to mobilize Bone-Calcium transport, following the administration of compound in rats at a concentration of 5000 pmol at 69 hr.; assay type: functional, organism-based
[35] = test system: Rattus norvegicus; assay: Ability to mobilize Bone-Calcium transport, following the administration of compound in rats at a concentration of 500 pmol at 12 hr.; assay type: functional, organism-based
[36] = test system: Rattus norvegicus; assay: Ability to mobilize Bone-Calcium transport, following the administration of compound in rats at a concentration of 500 pmol at 48 hr.; assay type: functional, organism-based
[37] = organism: Rattus norvegicus; assay: Calcium binding protein induction in duodenal organ culture at a concentration of 10 nM in Male Albino rats; assay type: functional
[38] = organism: Rattus norvegicus; assay: Calcium binding protein induction in duodenal organ culture at a concentration of 1 nM in Male Albino rats; assay type: functional
[39] = Relative potency against calcium binding protein induction in duodenal organ culture at a concentration of 10 nM compared to 1,25-(OH)2-D3 in Male Albino rats; assay type: functional
[40] = organism: Rattus norvegicus; assay: Calcium binding protein induction in duodenal organ culture at a concentration of 100 nM in Male Albino rats; assay type: functional

| SMILES | Serosal/Mucosal Ca [1] | Serum Ca2+ [2] [mg/dL] | Serum Ca2+ [3] [mg/dL] | Serum Ca2+ [4] [mg/dL] | Serum Ca2+ [5] [mg/dL] | Serum Ca2+ [6] [mg/dL] | Serum Ca2+ [7] [mg/dL] | Serum Ca2+ [8] [mg/dL] | Serosal/Mucosal Ca [9] | Serosal/Mucosal Ca [10] | Serum Ca2+ [11] [mg/dL] | Serosal/Mucosal Ca [12] | Serosal/Mucosal Ca [13] | Serosal/Mucosal Ca [14] | Serosal/Mucosal Ca [15] | Serosal/Mucosal Ca [16] | Serum Ca2+ [17] [mg/dL] | Serosal/Mucosal Ca [18] | Serosal/Mucosal Ca [19] | Serum Ca2+ [20] [mg/dL] | further results |
| --- | --- | --- | --- | --- | --- | --- | --- | --- | --- | --- | --- | --- | --- | --- | --- | --- | --- | --- | --- | --- | --- |
| C=C1CC[C@H](O)C/C1=C/C=C1\CCC[C@]2(C)[C@@H]([C@H](C)CCCC(C)(C)O)CC[C@@H]12 [CALCIFEDIOL ANHYDROUS] | 3.59 | 4.52 | 6.24 | 6.22 | 6.5 | 4.86 | 4.68 | 6.82 | 11.01 | 8.87 | 4.66 | 3.75 | 3.6 | 11.48 | 9.89 | 2.22 | 4.4 | 11.54 | 3.41 |  |  |
| C=C1/C(=C\C=C2/CCC[C@]3(C)[C@@H]([C@H](C)CCC(F)(F)C(O)(CC)CC)CC[C@@H]23)C[C@@H](O)C[C@@H]1O |  |  |  |  |  |  |  |  |  |  |  |  |  |  |  |  |  |  |  | 4.87 | Serum Ca2+ [21]: 4.34 mg/dL; Serosal/Mucosal Ca [22]: 3.04; Serosal/Mucosal Ca [23]: 8; Serum Ca2+ [24]: 5.86 mg/dL; Serosal/Mucosal Ca [25]: 5.39; Serosal/Mucosal Ca [26]: 8.92; Serum Ca2+ [27]: 3.98 mg/dL; Serosal/Mucosal Ca [28]: 5.46; Serosal/Mucosal Ca [29]: 8.84; Serum Ca2+ [30]: 4.08 mg/dL; Serosal/Mucosal Ca [31]: 2.85; Serosal/Mucosal Ca [32]: 4.25; Serosal/Mucosal Ca [33]: 2.09; Serum Ca2+ [34]: 4.82 mg/dL; Serum Ca2+ [35]: 6.12 mg/dL; Serum Ca2+ [36]: 4.94 mg/dL |
| C=C1/C(=C\C=C2/CCC[C@]3(C)[C@@H]([C@H](C)CCCC(C)(C)O)CC[C@@H]23)C[C@@H](O)C[C@@H]1O [CALCITRIOL] |  |  |  |  |  |  |  |  |  |  |  |  |  |  |  |  |  |  |  | 4.48 | Serum Ca2+ [21]: 4.38 mg/dL; Serosal/Mucosal Ca [22]: 5.69; Serosal/Mucosal Ca [23]: 7.22; Serum Ca2+ [24]: 4.78 mg/dL; Serosal/Mucosal Ca [25]: 5.98; Serosal/Mucosal Ca [26]: 4.06; Serum Ca2+ [27]: 4.08 mg/dL; Serosal/Mucosal Ca [28]: 5.67; Serosal/Mucosal Ca [29]: 4.99; Serum Ca2+ [30]: 4.54 mg/dL; Serosal/Mucosal Ca [31]: 2.62; Serosal/Mucosal Ca [32]: 4.71; Serosal/Mucosal Ca [33]: 3.19; Serum Ca2+ [34]: 4.78 mg/dL; Serum Ca2+ [35]: 6.1 mg/dL; Serum Ca2+ [36]: 4.35 mg/dL |
| C=C1CC[C@H](O)C/C1=C/C=C1\CCC[C@]2(C)[C@@H]([C@H](C)CCC(F)(F)C(O)(CC)CC)CC[C@@H]12 | 2.2 | 4.64 | 6.16 | 5.14 | 5.84 | 4.14 | 4.63 | 5.92 | 11.06 | 2.84 | 4.34 | 2.18 | 5.85 | 9.39 | 7.29 | 2.3 | 4.2 | 3.29 | 2.59 |  | Ca2+ binding protein [37]: 22.4 ug (100mg of duodenum)-1; Ca2+ binding protein [38]: 10.1 ug (100mg of duodenum)-1; Relative potency [39]: 4.5; Ca2+ binding protein [40]: 66.7 ug (100mg of duodenum)-1 |
